Results from ChEMBL document CHEMBL5108056, “Discovery of Isoform-Selective Akt3 Degraders Overcoming Osimertinib-Induced Resistance in Non-Small Cell Lung Cancer Cells” (J Med Chem, 2022).
pEC50, pIC50: −log10 of the molar value. Calls of active or inactive are those of the source. No cut-off for these calls is given here.

What was measured:
[1] = target: T1, RAC-gamma serine/threonine-protein kinase (Homo sapiens, UniProt Q9Y243); assay: Induction of AKT3 degradation in human NCI-H1975 cells assessed as reduction in AKT3 protein level at 1000 nM incubated for 24 hrs under serum free medium by Western blot analysis relative to control; format: cell-based
T1 sequence (Q9Y243 whole entry): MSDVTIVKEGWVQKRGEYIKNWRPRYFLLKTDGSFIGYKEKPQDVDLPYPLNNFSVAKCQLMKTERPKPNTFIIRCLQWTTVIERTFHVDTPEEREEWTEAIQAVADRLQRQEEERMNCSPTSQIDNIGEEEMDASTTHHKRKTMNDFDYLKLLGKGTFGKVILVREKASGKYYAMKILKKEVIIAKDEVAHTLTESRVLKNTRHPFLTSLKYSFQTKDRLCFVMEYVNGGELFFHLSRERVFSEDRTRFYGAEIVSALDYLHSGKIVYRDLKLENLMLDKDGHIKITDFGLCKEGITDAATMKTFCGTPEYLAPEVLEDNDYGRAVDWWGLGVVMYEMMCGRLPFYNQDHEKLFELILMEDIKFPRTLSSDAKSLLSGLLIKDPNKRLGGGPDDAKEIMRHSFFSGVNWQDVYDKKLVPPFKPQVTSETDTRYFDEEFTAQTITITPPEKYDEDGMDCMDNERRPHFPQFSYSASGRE

[2] = target: T2, RAC-alpha serine/threonine-protein kinase (Homo sapiens, UniProt P31749); assay: Induction of AKT1 degradation in human NCI-H1975 cells assessed as reduction in AKT1 protein level incubated for 24 hrs under serum free medium by Western blot analysis; format: cell-based
T2 sequence (P31749 whole entry): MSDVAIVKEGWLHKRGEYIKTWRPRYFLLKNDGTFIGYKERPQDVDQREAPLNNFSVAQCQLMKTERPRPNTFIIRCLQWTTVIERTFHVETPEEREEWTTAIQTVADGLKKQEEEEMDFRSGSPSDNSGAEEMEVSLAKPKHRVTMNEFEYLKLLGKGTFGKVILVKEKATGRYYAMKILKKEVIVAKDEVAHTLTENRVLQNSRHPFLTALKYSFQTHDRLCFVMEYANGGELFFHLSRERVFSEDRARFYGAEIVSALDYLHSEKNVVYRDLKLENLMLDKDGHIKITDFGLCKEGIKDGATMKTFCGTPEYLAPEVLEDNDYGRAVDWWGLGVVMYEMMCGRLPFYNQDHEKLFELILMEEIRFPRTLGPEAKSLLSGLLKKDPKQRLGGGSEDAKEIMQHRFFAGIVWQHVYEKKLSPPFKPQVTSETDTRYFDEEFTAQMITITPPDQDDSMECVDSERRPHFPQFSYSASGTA

[3] = target: T1, RAC-gamma serine/threonine-protein kinase; assay: Induction of AKT3 degradation in human NCI-H1975 cells assessed as reduction in AKT3 protein level incubated for 24 hrs under serum free medium by Western blot analysis; format: cell-based
[4] = target: T3, RAC-beta serine/threonine-protein kinase (Homo sapiens, UniProt P31751); assay: Induction of AKT2 degradation in human NCI-H1975 cells assessed as reduction in AKT2 protein level incubated for 24 hrs under serum free medium by Western blot analysis; format: cell-based
T3 sequence (P31751 whole entry): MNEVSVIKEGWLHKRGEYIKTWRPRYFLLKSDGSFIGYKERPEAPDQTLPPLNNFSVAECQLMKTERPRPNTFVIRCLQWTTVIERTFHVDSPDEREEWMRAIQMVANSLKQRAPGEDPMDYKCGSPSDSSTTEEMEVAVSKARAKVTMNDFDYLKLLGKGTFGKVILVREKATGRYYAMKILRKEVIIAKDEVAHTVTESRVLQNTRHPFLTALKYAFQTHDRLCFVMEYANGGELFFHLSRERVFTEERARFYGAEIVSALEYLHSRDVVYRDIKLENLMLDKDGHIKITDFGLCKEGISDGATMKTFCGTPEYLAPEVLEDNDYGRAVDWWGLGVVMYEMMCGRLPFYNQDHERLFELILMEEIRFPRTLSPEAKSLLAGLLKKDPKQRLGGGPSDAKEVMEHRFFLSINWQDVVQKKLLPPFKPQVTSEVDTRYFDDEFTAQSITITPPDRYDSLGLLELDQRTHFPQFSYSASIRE

NCI-H1975 [5] = assay: Antiproliferative activity against human osimertinib resistant NCI-H1975 cells assessed as reduction in cell viability measured after 24 hrs by CCK-8 assay; format: functional, cell-based; settings: NCI-H1975, 24 h
NCI-H1975 [6] = assay: Antiproliferative activity against human NCI-H1975 cells assessed as reduction in cell viability incubated for 72 hrs by CCK-8 assay; settings: NCI-H1975, 72 h
NCI-H1975 [7] = assay: Antiproliferative activity against human NCI-H1975 cells harbouring Akt3 T305A/S472A mutant assessed as reduction in cell viability incubated for 72 hrs by CCK-8 assay; format: functional, cell-based; settings: NCI-H1975, 72 h
NCI-H1975 [8] = assay: Antiproliferative activity against human NCI-H1975 cells harbouring wild type Akt3 assessed as reduction in cell viability incubated for 72 hrs by CCK-8 assay; settings: NCI-H1975, 72 h
[9] = target: T2, RAC-alpha serine/threonine-protein kinase; assay: Induction of AKT1 degradation in human NCI-H1975 cells assessed as reduction in AKT1 protein level at 1000 nM incubated for 24 hrs under serum free medium by Western blot analysis relative to control; format: cell-based
[10] = target: T3, RAC-beta serine/threonine-protein kinase; assay: Induction of AKT2 degradation in human NCI-H1975 cells assessed as reduction in AKT2 protein level at 1000 nM incubated for 24 hrs under serum free medium by Western blot analysis relative to control; format: cell-based
[11] = target: Epidermal growth factor receptor (Homo sapiens, UniProt P00533); assay: Inhibition of EGFR in human NCI-H1975 cells; format: cell-based
Chain of Epidermal growth factor receptor (P00533 whole entry): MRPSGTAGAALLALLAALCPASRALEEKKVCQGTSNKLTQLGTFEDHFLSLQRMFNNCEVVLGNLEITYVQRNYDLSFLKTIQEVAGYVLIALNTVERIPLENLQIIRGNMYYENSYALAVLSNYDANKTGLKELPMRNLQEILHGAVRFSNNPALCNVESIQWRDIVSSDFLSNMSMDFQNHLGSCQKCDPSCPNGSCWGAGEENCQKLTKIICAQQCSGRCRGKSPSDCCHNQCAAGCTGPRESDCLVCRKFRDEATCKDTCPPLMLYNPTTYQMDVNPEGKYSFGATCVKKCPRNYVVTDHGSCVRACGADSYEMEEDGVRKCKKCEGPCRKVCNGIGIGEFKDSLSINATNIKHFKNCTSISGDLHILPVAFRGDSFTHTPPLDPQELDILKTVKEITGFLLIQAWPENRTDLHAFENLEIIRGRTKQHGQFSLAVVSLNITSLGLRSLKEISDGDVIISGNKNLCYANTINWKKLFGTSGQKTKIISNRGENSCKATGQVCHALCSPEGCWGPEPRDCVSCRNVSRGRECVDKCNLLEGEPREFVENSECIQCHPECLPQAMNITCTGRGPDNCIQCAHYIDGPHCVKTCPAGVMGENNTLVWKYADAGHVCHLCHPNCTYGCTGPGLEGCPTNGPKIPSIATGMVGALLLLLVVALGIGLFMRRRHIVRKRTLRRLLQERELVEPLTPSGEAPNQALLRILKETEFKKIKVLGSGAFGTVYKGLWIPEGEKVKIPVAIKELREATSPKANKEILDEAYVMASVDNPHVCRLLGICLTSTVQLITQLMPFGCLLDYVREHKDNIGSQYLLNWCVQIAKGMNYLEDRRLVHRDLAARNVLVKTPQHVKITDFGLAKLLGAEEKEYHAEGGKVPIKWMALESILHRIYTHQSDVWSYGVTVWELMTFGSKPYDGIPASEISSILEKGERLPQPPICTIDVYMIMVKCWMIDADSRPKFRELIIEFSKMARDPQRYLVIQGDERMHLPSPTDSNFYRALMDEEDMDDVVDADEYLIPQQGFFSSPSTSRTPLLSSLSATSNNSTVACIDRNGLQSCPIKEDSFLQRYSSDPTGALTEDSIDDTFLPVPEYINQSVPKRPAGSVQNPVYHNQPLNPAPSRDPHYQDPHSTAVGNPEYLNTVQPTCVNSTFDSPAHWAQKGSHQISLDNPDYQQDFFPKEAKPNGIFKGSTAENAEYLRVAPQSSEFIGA

[12] = target: T1, RAC-gamma serine/threonine-protein kinase; assay: Induction of AKT3 degradation in human NCI-H1975 cells assessed as reduction in AKT3 protein level incubated for 24 hrs by Western blot analysis; format: cell-based; settings: dose 1.6-1000 nM, DDE = dose-dependent effect
[13] = target: T1, RAC-gamma serine/threonine-protein kinase; assay: Induction of AKT3 degradation in human A549 cells assessed as reduction in AKT3 protein level incubated for 24 hrs by Western blot analysis; format: cell-based; settings: dose 1.6-1000 nM, DDE = dose-dependent effect
PC-9 = assay: In vivo antitumor activity against human PC-9 cells xenografted in NOD-SCID mouse assessed as tumor growth inhibition at 20 mg/kg, ip qd administered once every 2 days for 28 days relative to control; format: functional; settings: PC-9, 672 h, time 28 day, read-out: TGI
[14] = target: T1, RAC-gamma serine/threonine-protein kinase; assay: Induction of AKT3 degradation in human HCC827 cells assessed as reduction in AKT3 protein level incubated for 24 hrs by Western blot analysis; format: cell-based; settings: dose 1.6-1000 nM, DDE = dose-dependent effect
NCI-H1975 [15] = assay: In vivo antitumor activity against human osimertinib resistant NCI-H1975 cells xenografted in NOD-SCID mouse assessed as tumor growth inhibition at 20 mg/kg, ip qd administered every 3 days for 5 weeks relative to control; format: functional, organism-based
[16] = target: T1, RAC-gamma serine/threonine-protein kinase; assay: Induction of AKT3 degradation in human osimertinib resistant NCI-H1975 cells assessed as reduction in AKT3 protein level incubated for 24 hrs by Western blot analysis; format: cell-based; settings: dose 1.6-1000 nM, DDE = dose-dependent effect
[17] = target: T1, RAC-gamma serine/threonine-protein kinase; assay: Induction of AKT3 degradation in human PC-9 cells assessed as reduction in AKT3 protein level incubated for 24 hrs by Western blot analysis; format: cell-based; settings: dose 1.6-1000 nM, DDE = dose-dependent effect
[18] = Toxicity in NOD-SCID mouse xenografted with human PC-9 cells assessed as change in body weight at 20 mg/kg, ip qd administered once every 2 days for 28 days; format: organism-based; settings: in vivo, 672 h, time 28 day
[19] = target: T1, RAC-gamma serine/threonine-protein kinase; assay: Induction of AKT3 degradation in human NCI-H1299 cells assessed as reduction in AKT3 protein level incubated for 24 hrs by Western blot analysis; format: cell-based; settings: dose 1.6-1000 nM, DDE = dose-dependent effect
[20] = target: T1, RAC-gamma serine/threonine-protein kinase; assay: Induction of AKT3 degradation in human osimertinib resistant NCI-H1975 cells by gel fluorescence and Coomassie bright blue staining based analysis; format: cell-based
[21] = target: T1, RAC-gamma serine/threonine-protein kinase; assay: Induction of AKT3 degradation in human NCI-H460 cells assessed as reduction in AKT3 protein level incubated for 24 hrs by Western blot analysis; format: cell-based; settings: dose 1.6-1000 nM, DDE = dose-dependent effect
[22] = target: T1, RAC-gamma serine/threonine-protein kinase; assay: Induction of AKT3 degradation in human osimertinib resistant NCI-H1975 cells assessed as increase in AKT3 ubiquitination at 100 nM incubated for 24 hrs in the presence of proteosome inhibitor MG132 by immunoprecipitation analysis; format: cell-based
[23] = target: T1, RAC-gamma serine/threonine-protein kinase; assay: Induction of AKT3 degradation in human osimertinib resistant NCI-H1975 cells assessed as increase in AKT3 degradation at 100 nM incubated for 24 hrs in presence of cycloheximide; format: cell-based
NCI-H1975 [24] = assay: In vivo antitumor activity against human osimertinib resistant NCI-H1975 cells xenografted in NOD-SCID mouse assessed as tumor growth inhibition at 40 mg/kg, ip qd administered every 3 days for 5 weeks relative to control; format: functional, organism-based
[25] = target: T1, RAC-gamma serine/threonine-protein kinase; assay: Induction of endogenous AKT3 degradation in human osimertinib resistant NCI-H1975 cells; format: cell-based
[26] = Toxicity in NOD-SCID mouse xenografted with human osimertinib resistant NCI-H1975 cells assessed as change in body weight at 10 to 40 mg/kg, […] administered every 3 days for 5 weeks; format: organism-based; settings: in vivo, 840 h, dose 10-40 mg/kg
NCI-H1975 [27] = assay: In vivo antitumor activity against human osimertinib resistant NCI-H1975 cells xenografted in NOD-SCID mouse assessed as tumor growth inhibition at 10 mg/kg, ip qd administered every 3 days for 5 weeks relative to control; format: functional, organism-based
NCI-H1975 [28] = assay: In vivo induction of AKT3 degradation in human osimertinib resistant cells xenografted in NOD-SCID mouse assessed as reduction in AKT3 level in tumor tissue at 10 to 40 mg/kg, ip qd administered every 3 days for 5 weeks by Western blot analysis; format: functional, organism-based; settings: dose 10-40 mg/kg
[29] = target: T1, RAC-gamma serine/threonine-protein kinase; assay: Binding affinity to AKT3 in human NCI-H1975 cells assessed as increase in thermal stability at 2 uM by thermal shift assay; format: cell-based
[30] = target: T1, RAC-gamma serine/threonine-protein kinase; assay: Binding affinity to full length N-terminal His6-sumo tagged AKT3 (unknown origin) expressed Escherichia coli BL21 (DE3) cells incubated for 2 hrs by pull-down/ LC-MS analysis

Structure (SMILES): C=CC(=O)Nc1cccc(-n2c(=O)cc(C)c3cnc(Nc4ccc(N5CCN(CCCCCCCCCCCCCCNC(=O)CC67CC8CC(CC(C8)C6)C7)CC5)cc4OC)nc32)c1
- Emax [1]: 75%
- pEC50 [2]: < 6.00
- pEC50 [3]: 6.92
- pEC50 [4]: < 6.00

Structure (SMILES): COc1cc(N2CCN(CCCCCCCCCCCCNC(=O)CC34CC5CC(CC(C5)C3)C4)CC2)ccc1Nc1ncc2c(C)cc(=O)n(-c3ccc(NC(=O)C4CC4)cc3)c2n1
- pIC50 (NCI-H1975 [5]): < 5.00
- pEC50 [2]: < 6.00
- pEC50 [3]: < 6.00
- pEC50 [4]: < 6.00

Structure (SMILES): COc1cc(N2CCN(CCCCCCCCCCCCNC(=O)CC34CC5CC(CC(C5)C3)C4)CC2)ccc1Nc1ncc2c(C)cc(=O)n(-c3cccc(NC(=O)C(C)(C)C)c3)c2n1
- Emax [1]: 77%
- pEC50 [2]: < 6.00
- pEC50 [3]: 7.24
- pEC50 [4]: < 6.00

Structure (SMILES): C=CC(=O)Nc1ccc(-n2c(=O)cc(C)c3cnc(Nc4ccc(N5CCN(CCCCCCCCCCCCNC(=O)CC67CC8CC(CC(C8)C6)C7)CC5)cc4OC)nc32)cc1
- pEC50 [2]: < 6.00
- pEC50 [3]: < 6.00
- pEC50 [4]: < 6.00

Structure (SMILES): C=CC(=O)Nc1cccc(-n2c(=O)cc(C)c3cnc(Nc4ccc(N5CCN(C(=O)CCCCCCCCCCCNC(=O)CC67CC8CC(CC(C8)C6)C7)CC5)cc4OC)nc32)c1
- pEC50 [2]: < 6.00
- pEC50 [3]: < 6.00
- pEC50 [4]: < 6.00

Structure (SMILES): C=CC(=O)Nc1cccc(-n2c(=O)cc(C)c3cnc(Nc4ccc(N5CCN(CCCCCCCCNC(=O)CC67CC8CC(CC(C8)C6)C7)CC5)cc4OC)nc32)c1
- Emax [9]: 55%
- Emax [10]: 69%
- Emax [1]: 75%
- pEC50 [2]: 6.77
- pEC50 [3]: 7.28
- pEC50 [4]: 7.09

Structure (SMILES): COc1cc(N2CCN(CCCCCCCCCCCCNC(=O)CC34CC5CC(CC(C5)C3)C4)CC2)ccc1Nc1ncc2c(C)cc(=O)n(-c3cccc(NC(=O)C4CC4)c3)c2n1
- pEC50 [11]: 6.24
- Activity [12]: Dde
- Activity [13]: Dde
- inhibition in vivo at 20 mg/kg (PC-9): 75%
- Activity [14]: Dde
- Emax [1]: 88%
- Activity (NCI-H1975 [15]): Active
- Activity [16]: Dde
- Activity [17]: Dde
- Activity [18]: Non-Toxic
- Activity [19]: Dde
- pIC50 (NCI-H1975 [5]): 8.15
- Activity [20]: Active
- Activity [21]: Dde
- Activity [22]: Active
- Activity [23]: Active
- Activity (NCI-H1975 [24]): Active
- Activity [25]: Active
- Activity [26]: Non-Toxic
- Activity (NCI-H1975 [27]): Active
- Activity (NCI-H1975 [28]): Active
- pEC50 [2]: < 6.00
- pEC50 [3]: 7.89
- pEC50 [4]: < 6.00
- Activity [29]: Active
- Activity [30]: Active

Structure (SMILES): COc1cc(N2CCN(CCCCCCCCCCCCNC(=O)CC34CC5CC(CC(C5)C3)C4)CC2)ccc1Nc1ncc2c(C)cc(=O)n(-c3cccc(NC(C)=O)c3)c2n1
- Emax [1]: 68%
- pEC50 [2]: < 6.00
- pEC50 [3]: 7.17
- pEC50 [4]: < 6.00

Structure (SMILES): C=CC(=O)Nc1cccc(-n2c(=O)cc(C)c3cnc(Nc4ccc(N5CCN(CCOCCOCCNC(=O)CC67CC8CC(CC(C8)C6)C7)CC5)cc4OC)nc32)c1
- Emax [9]: 55%
- Emax [1]: 55%
- pEC50 [2]: 6.52
- pEC50 [3]: 6.25
- pEC50 [4]: < 6.00
